PubChem BioAssay (NCI)
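How tested: cells in 96-well plates exposed to compound for 48 hours at five concentrations. TGI denotes the concentration required for complete inhibition of growth.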

Assays:
Test in all cases: DTP human tumour cell line panel, 48 h
OVCAR-5 ovarian = tested on: OVCAR-5 ovarian
NCI/ADR-RES ovarian = tested on: NCI/ADR-RES ovarian
NCI-H522 lung = tested on: NCI-H522 lung
UACC-257 melanoma = tested on: UACC-257 melanoma
SR leukemia = tested on: SR leukemia
SK-MEL-5 melanoma = tested on: SK-MEL-5 melanoma
SK-OV-3 ovarian = tested on: SK-OV-3 ovarian
SN12C renal = tested on: SN12C renal
LOX IMVI melanoma = tested on: LOX IMVI melanoma
PC-3 prostate = tested on: PC-3 prostate
MDA-MB-435 = tested on: MDA-MB-435
COLO 205 colon = tested on: COLO 205 colon
SF-295 CNS = tested on: SF-295 CNS
CAKI-1 renal = tested on: CAKI-1 renal
OVCAR-3 ovarian = tested on: OVCAR-3 ovarian
K-562 leukemia = tested on: K-562 leukemia
IGROV1 ovarian = tested on: IGROV1 ovarian
EKVX NSCLC = tested on: EKVX NSCLC
RXF 393 renal = tested on: RXF 393 renal
MDA-N = tested on: MDA-N
MCF7 breast = tested on: MCF7 breast
HOP-62 NSCLC = tested on: HOP-62 NSCLC
ACHN renal = tested on: ACHN renal
M14 melanoma = tested on: M14 melanoma
NCI-H460 lung = tested on: NCI-H460 lung
BT-549 breast = tested on: BT-549 breast
HT29 colon = tested on: HT29 colon
SF-268 CNS = tested on: SF-268 CNS
T-47D breast = tested on: T-47D breast
MALME-3M melanoma = tested on: MALME-3M melanoma
SK-MEL-28 melanoma = tested on: SK-MEL-28 melanoma
MDA-MB-231 breast = tested on: MDA-MB-231 breast
NCI-H23 lung = tested on: NCI-H23 lung
HCC-2998 colon = tested on: HCC-2998 colon
OVCAR-4 ovarian = tested on: OVCAR-4 ovarian
SF-539 CNS = tested on: SF-539 CNS
HL-60(TB) leukemia = tested on: HL-60(TB) leukemia
DU-145 prostate = tested on: DU-145 prostate
SNB-19 CNS = tested on: SNB-19 CNS
HCT-15 colon = tested on: HCT-15 colon
A549 NSCLC = tested on: A549 NSCLC
TK-10 renal = tested on: TK-10 renal
SW-620 colon = tested on: SW-620 colon
U251 CNS = tested on: U251 CNS
A498 renal = tested on: A498 renal
SK-MEL-2 melanoma = tested on: SK-MEL-2 melanoma
OVCAR-8 ovarian = tested on: OVCAR-8 ovarian
KM12 colon = tested on: KM12 colon
RPMI-8226 leukemia = tested on: RPMI-8226 leukemia
CCRF-CEM leukemia = tested on: CCRF-CEM leukemia
786-0 renal = tested on: 786-0 renal
HCT-116 colon = tested on: HCT-116 colon
NCI-H226 lung = tested on: NCI-H226 lung
UO-31 renal = tested on: UO-31 renal
HS 578T breast = tested on: HS 578T breast
UACC-62 melanoma = tested on: UACC-62 melanoma
MOLT-4 leukemia = tested on: MOLT-4 leukemia
SNB-75 CNS = tested on: SNB-75 CNS
HOP-92 NSCLC = tested on: HOP-92 NSCLC

CC12Cc3cc4c(cc3C1(c1ccc([N+](=O)[O-])cc1)OCCO2)OCO4 (configuration not stated)
TGI (OVCAR-5 ovarian): > 100 µM
TGI (NCI/ADR-RES ovarian): > 100 µM
TGI (NCI-H522 lung): > 100 µM
TGI (UACC-257 melanoma): > 100 µM
TGI (SR leukemia): > 100 µM
TGI (SK-MEL-5 melanoma): > 100 µM
TGI (SK-OV-3 ovarian): 47.6 µM
TGI (SN12C renal): > 100 µM
TGI (LOX IMVI melanoma): > 100 µM
TGI (PC-3 prostate): > 100 µM
TGI (MDA-MB-435): > 100 µM
TGI (COLO 205 colon): > 100 µM
TGI (SF-295 CNS): 57.7 µM
TGI (CAKI-1 renal): > 100 µM
TGI (OVCAR-3 ovarian): > 100 µM
TGI (K-562 leukemia): > 100 µM
TGI (IGROV1 ovarian): 85.1 µM
TGI (EKVX NSCLC): > 100 µM
TGI (RXF 393 renal): 51.6 µM
TGI (MDA-N): > 100 µM
TGI (MCF7 breast): > 100 µM
TGI (HOP-62 NSCLC): 46.5 µM
TGI (ACHN renal): > 100 µM
TGI (M14 melanoma): > 100 µM
TGI (NCI-H460 lung): > 100 µM
TGI (BT-549 breast): 91.9 µM
TGI (HT29 colon): > 100 µM
TGI (SF-268 CNS): 71.6 µM
TGI (T-47D breast): > 100 µM
TGI (MALME-3M melanoma): > 100 µM
TGI (SK-MEL-28 melanoma): > 100 µM
TGI (MDA-MB-231 breast): 42.3 µM
TGI (NCI-H23 lung): > 100 µM
TGI (HCC-2998 colon): > 100 µM
TGI (OVCAR-4 ovarian): > 100 µM
TGI (SF-539 CNS): > 100 µM
TGI (HL-60(TB) leukemia): > 100 µM
TGI (DU-145 prostate): > 100 µM
TGI (SNB-19 CNS): 73.2 µM
TGI (HCT-15 colon): > 100 µM
TGI (A549 NSCLC): > 100 µM
TGI (TK-10 renal): > 100 µM
TGI (SW-620 colon): > 100 µM
TGI (U251 CNS): > 100 µM
TGI (A498 renal): > 100 µM
TGI (SK-MEL-2 melanoma): > 100 µM
TGI (OVCAR-8 ovarian): 64 µM
TGI (KM12 colon): > 100 µM
TGI (RPMI-8226 leukemia): > 100 µM
TGI (CCRF-CEM leukemia): > 100 µM
TGI (786-0 renal): > 100 µM
TGI (HCT-116 colon): > 100 µM
TGI (NCI-H226 lung): 86.7 µM
TGI (UO-31 renal): > 100 µM
TGI (HS 578T breast): 86.4 µM
TGI (UACC-62 melanoma): > 100 µM
TGI (MOLT-4 leukemia): > 100 µM

COc1ccc2c3c1OC1c4[nH]c5ccccc5c4CC4(O)C(C2)N(C)CCC314 (configuration not stated)
TGI (OVCAR-5 ovarian): > 100 µM
TGI (NCI/ADR-RES ovarian): > 100 µM
TGI (NCI-H522 lung): 81.4 µM
TGI (UACC-257 melanoma): 34.1 µM
TGI (SR leukemia): 37 µM
TGI (SK-MEL-5 melanoma): 29.5 µM
TGI (SK-OV-3 ovarian): > 100 µM
TGI (SN12C renal): > 100 µM
TGI (LOX IMVI melanoma): 52 µM
TGI (PC-3 prostate): > 100 µM
TGI (MDA-MB-435): 35.7 µM
TGI (COLO 205 colon): 37.7 µM
TGI (SF-295 CNS): > 100 µM
TGI (CAKI-1 renal): > 100 µM
TGI (OVCAR-3 ovarian): > 100 µM
TGI (K-562 leukemia): 37.2 µM
TGI (IGROV1 ovarian): > 100 µM
TGI (EKVX NSCLC): > 100 µM
TGI (RXF 393 renal): 50.8 µM
TGI (MDA-N): 32.7 µM
TGI (MCF7 breast): 60.4 µM
TGI (HOP-62 NSCLC): > 100 µM
TGI (ACHN renal): 75.6 µM
TGI (M14 melanoma): 32.3 µM
TGI (NCI-H460 lung): 50.3 µM
TGI (BT-549 breast): > 100 µM
TGI (HT29 colon): 49.3 µM
TGI (SF-268 CNS): > 100 µM
TGI (SNB-75 CNS): > 100 µM
TGI (T-47D breast): 43.6 µM
TGI (SK-MEL-28 melanoma): 34.5 µM
TGI (MDA-MB-231 breast): 77.4 µM
TGI (NCI-H23 lung): > 100 µM
TGI (HCC-2998 colon): 31 µM
TGI (OVCAR-4 ovarian): > 100 µM
TGI (DU-145 prostate): > 100 µM
TGI (SNB-19 CNS): > 100 µM
TGI (HCT-15 colon): > 100 µM
TGI (A549 NSCLC): > 100 µM
TGI (TK-10 renal): 50.2 µM
TGI (SW-620 colon): > 100 µM
TGI (U251 CNS): 44.8 µM
TGI (A498 renal): 31.6 µM
TGI (SK-MEL-2 melanoma): 39.5 µM
TGI (OVCAR-8 ovarian): > 100 µM
TGI (KM12 colon): > 100 µM
TGI (RPMI-8226 leukemia): 45.9 µM
TGI (CCRF-CEM leukemia): 52.8 µM
TGI (786-0 renal): 34.3 µM
TGI (HCT-116 colon): > 100 µM
TGI (UO-31 renal): 28.1 µM
TGI (HS 578T breast): 67.7 µM
TGI (HOP-92 NSCLC): 48.7 µM
TGI (UACC-62 melanoma): 57.3 µM
TGI (MOLT-4 leukemia): 54.1 µM
